Laboratory results taken from patent US20140000883A1, “PETROLEUM RECOVERY PROCESS AND SYSTEM” (Shell Oil Company, priority 2012, published 2014).

Assay: Incremental oil recovery from formation core after water-flooding
Conditions: after waterflooding with brine
Experimental: Incremental recovery of oil from a formation core using an oil recovery formulation consisting of dimethyl sulfide following oil recovery from the core by water-flooding was measured to evaluate the effectiveness of DMS as a tertiary oil recovery agent.
Two 5.02 cm long Berea sandstone cores with a core diameter of 3.78 cm and a permeability between 925 and 1325 mD were saturated with a brine having a composition as set forth in Table 7.
After saturation of the cores with brine, the brine was displaced by a Middle Eastern Asphaltic crude oil having the characteristics as set forth above in Table 3 to saturate the cores with oil.
Oil was recovered from each oil saturated core by the addition of brine to the core under pressure and by subsequent addition of DMS to the core under pressure. Each core was treated as follows to determine the amount of oil recovered from the core by addition of brine followed by addition of DMS. Oil was initially displaced from the core by addition of brine to the core under pressure. A confining pressure of 1 MPa was applied to the core during addition of the brine, and the flow rate of brine to the core was set at 0.05 ml/min. The core was maintained at a temperature of 50° C. during displacement of oil from the core with brine. […]

CSC [Dimethyl Sulfide, dimethyl sulfide]
oil recovered of the oil remaining in the core after the waterflood: approximately 60%
